Assay results taken from patent US8445677B2, “Substituted pyrimidyl guanidine derivatives having anticancer activity” (University of Southern California, priority 2008, dated 2013).
Read-outs that look alike come from different tables or passages of the source.

Tests used:
[1] = test system: SkBr-3; experiment: MTT cytotoxicity assay (Example 2); assay type: cell-based, human
Text: (§1) Human breast cancer cell lines MDA-MB-435 and SkBr-3 were purchased from the American Type Culture Collection (Manassas, Va.). The HCT116 P53+/+ and HCT116 P53−/− cell lines were kindly provided by Dr. Bert Vogelstein (Johns Hopkins Medical Institutions, Baltimore, Md.). The HEY human ovarian carcinoma cell line was kindly provided by Dr. Louis Dubeau (University of Southern California Norris Cancer Center). Cells were maintained as monolayer cultures in media supplemented with 10% fetal bovine serum (Gemini-Bioproducts, Woodland, Calif.) and 2 mmo/lL-glutamine at 37° C. in a humidified atmosphere of 5% C02. To remove the adherent cells from the flask for passaging and counting, cells were washed with PBS without calcium or magnesium, incubated with a small volume of 0.25% trypsin-EDTA solution (Sigma-Aldrich, St. Louis, Mo.) for 5-10 min, and washed with culture medium and centrifuged. All experiments were performed using cells in exponential growth stage. Cells were routinely checked for mycoplasma contamination using a PCR-based assay (Stratagene, Cambridge, UK).
(§2) Stock solutions (10 mM) of all compounds were prepared in DMSO and stored at −20° C. Further dilutions were made fresh in cell-culture media just prior to cell treatment.
(§3) Cytotoxicity was assessed by a 3-(4,5-dimethylthiazol-2-yl)-2,5-diphenyltetrazolium bromide (MTT) assay as previously described.^23 Cells were seeded in 96-well plates and allowed to attach overnight. Cells were subsequently treated with continuous exposure to the corresponding drug for 72 h. An MTT solution (at a final concentration of 0.5 mg/ml) was added to each well, and cells were incubated for 4 h at 37° C. After removal of the medium, DMSO was added and the absorbance was read at 570 nm. All assays were performed in triplicate. The IC50 was determined for each drug from a plot of log (drug concentration) versus percentage of cells killed.

[2] = test system: HEY; experiment: MTT cytotoxicity assay (Example 2); assay type: cell-based, human; conditions: 72 h
Text: as §1, §2, §3

[3] = test system: MDA-MB-435; experiment: MTT cytotoxicity assay (Example 2); assay type: cell-based; conditions: Homo sapiens, MDA-MB-435, 72 h
Text: as §1, §2, §3

[4] = test system: HCT116 p53−/−; experiment: MTT cytotoxicity assay (Example 2); assay type: cell-based
Text: as §1, §2, §3

[5] = test system: HCT116 p53+/+; experiment: MTT cytotoxicity assay (Example 2); assay type: cell-based
Text: as §1, §2, §3

[6] = test system: panel of cancer cell lines; experiment: MTT cytotoxicity, panel of cancer cell lines (Example 2); assay type: cell-based
Text: as §1, §2, §3

[7] = MTT, 72 h, read-out: IC50 Hct116 p53+/+
[8] = Homo sapiens, HCT-116, 72 h, MTT, 72 h, read-out: IC50 Hct116 p53+/+
[9] = Homo sapiens, HCT-116, p53+/+ cell line, read-out: IC50

Row | SMILES | IC50 ([1]; 72 h) [µM] | IC50 ([1]; Homo sapiens, SK-BR-3, 72 h) [µM] | IC50 [2] [µM] | IC50 [3] [µM] | IC50 ([4]; Homo sapiens, HCT-116, 72 h) [µM] | IC50 [5, 7] [µM] | IC50 ([2]; Homo sapiens) [µM] | IC50 [5, 8] [µM] | IC50 ([6]; certain cancer cell lines) [µM] | IC50 ([4]; 72 h) [µM] | IC50 [5, 9] [µM] | IC50 ([6]; five cancer cell lines) [µM]
1 | Cc1cc(C)nc(NC(=N)Nc2cc(Oc3ccccc3)ccc2Cl)n1 [1-SMD6] | 5 ± 1 | < 10 | 3.5 ± 1.6 | 8 ± 0.5 | 1.5 ± 0.1 | 1 ± 0.7 |  |  |  |  |  | 
2 | Cc1cc(C)nc(NC(=N)Nc2ccc(Cl)cc2C(=O)c2ccccc2)n1 [2-SMD6-4] |  | 7.4 ± 0.5 |  | > 10 | 2.1 ± 0.1 |  | 2.5 ± 0.4 | 2.2 ± 0.8 | < 3 |  |  | 
3 | CCCOc1ccc(NC(=N)Nc2nc(C)cc(C)n2)cc1 [3-SMD6-5] |  | > 10 |  | > 10 | 8.1 ± 0.6 |  | > 10 | > 10 |  |  |  | 
4 | Cc1cc(C)nc(NC(=N)Nc2ccc(Cl)c(C(F)(F)F)c2)n1 [4-SMD6-8] |  | 2.5 ± 0.5 |  |  | 2.1 ± 0.5 |  | 2.2 ± 0.3 | 1.6 ± 0.4 | < 3 |  |  | 
5 | COC(=O)/C=C1/N=C(Nc2nc3ccccc3s2)NC1=O [5-SMD18] | 2.5 ± 0.8 |  | 7.2 ± 0.2 | 7 ± 1.1 | 6.5 | 7.2 ± 0.1 | < 10 | < 10 |  |  |  | 
6 | CCOC(=O)Cc1cc(=O)nc(Nc2nc3ccccc3s2)[nH]1 [6-SMD18-1] |  | > 10 |  | 9.5 | 4 ± 2 |  |  | 3.4 ± 0.2 |  |  |  | 
7 | Cc1[nH]c(Nc2nc3ccccc3s2)nc(=O)c1Cc1ccccc1 [7-SMD18-8] |  | > 10 |  | > 10 | > 10 | > 10 |  | 10 |  | 7.2 |  | 
8 | CC(C)c1cc(=O)[nH]c(Nc2nc3ccccc3s2)n1 [8-SMD18-14] |  | > 10 |  | > 10 | 3.6 ± 1.8 |  |  | 4.5 ± 1.5 |  |  |  | 
9 | CC(C)(C)c1cc(=O)[nH]c(Nc2nc3ccccc3s2)n1 [9-SMD18-15-BAS 125346 60] |  | > 10 |  | 7.5 | 9.9 |  |  | 9.9 |  |  |  | 
10 | CCOC(=O)C1CCN(Cc2ccc(O)c3ncccc23)CC1 [10-SMD58] | 3.5 ± 0.5 |  | 0.5 | 2.4 ± 1.5 | 0.3 |  |  |  |  |  | < 1 | < 3.5
11 | Oc1ccc(Cc2ccc(O)c3ncccc23)c2cccnc12 [11-SMD58-1] |  | 1.4 ± 0.8 |  | 2.8 ± 1.7 | 0.25 ± 0.5 |  | 0.1 | 0.45 |  |  | < 1 | 
12 | CCOC(=O)C1CCCN(Cc2ccc(O)c3ncccc23)C1 (stereo not drawn) [12-SMD58] |  | 2.2 ± 0.9 |  | 4.2 ± 1.2 | 2 ± 0.1 |  | 0.9 | 1.6 ± 0.4 |  |  |  | 
13 | CCOC(=O)N1CCN(Cc2ccc(O)c3ncccc23)CC1 [13-SMD58-5] |  | 3.7 ± 0.5 |  | 5.3 ± 0.1 | 1 ± 0.1 |  | 1.9 | 2.1 ± 0.2 |  |  |  | 
